# Laboratory results published in ChEMBL document CHEMBL2157933, “The synthesis and antituberculosis activity of 5'-nor carbocyclic uracil derivatives” (Bioorg Med Chem, 2012).
# Active and inactive are the calls of the source. No cut-off for these calls is given here.
# Legend:
# [1] = (§1) Cytotoxicity against african green monkey Vero cells after 72 hrs by MTT assay; format: cell-based; settings: chlorocebus sabaeus, Vero cells
# [2] = system: Mycobacterium tuberculosis; assay: Antibacterial activity against Mycobacterium tuberculosis H37Rv assessed as growth inhibition at 20 to 40 ug/ml by BACTEC method; format: functional
# [3] = system: Mycobacterium tuberculosis; assay: Antibacterial activity against Mycobacterium tuberculosis H37Rv by BACTEC method; format: functional
# [4] = system: Mycobacterium tuberculosis; assay: Antibacterial activity against Mycobacterium tuberculosis H37Rv under anaerobic condition assessed as growth inhibition at 20 ug/ml after 2 to 3 days by BACTEC method; format: functional, organism-based
# [5] = system: Mycobacterium tuberculosis; assay: Antibacterial activity against Mycobacterium tuberculosis H37Rv assessed as growth inhibition at 40 ug/ml by BACTEC method; format: functional; settings: read-out: GI
# [6] = system: Mycobacterium tuberculosis; assay: Antibacterial activity against Mycobacterium tuberculosis H37Rv under anaerobic condition by BACTEC method; format: functional
# [7] = system: Mycobacterium tuberculosis; assay: Antibacterial activity against Mycobacterium tuberculosis H37Rv under anaerobic condition assessed as growth inhibition at 10 to 20 ug/ml by BACTEC method; format: functional
# [8] = system: Mycobacterium tuberculosis; assay: Antibacterial activity against Mycobacterium tuberculosis H37Rv under anaerobic condition assessed as growth inhibition at 5 ug/ml by BACTEC method; format: functional
# [9] = system: Mycobacterium tuberculosis; assay: Antibacterial activity against Mycobacterium tuberculosis H37Rv under anaerobic condition assessed as growth inhibition at 20 ug/ml by BACTEC method; format: functional; settings: read-out: GI
# Vero = assay: as §1; format: cell-based; settings: chlorocebus sabaeus, vero, 72 h
# [10] = system: Mycobacterium tuberculosis; assay: Antibacterial activity against Mycobacterium tuberculosis H37Rv assessed as growth inhibition at 10 ug/ml by BACTEC method; format: functional; settings: read-out: GI
# [11] = system: Mycobacterium tuberculosis; assay: Antibacterial activity against Mycobacterium tuberculosis H37Rv under anaerobic condition assessed as growth inhibition at 10 ug/ml by BACTEC method; format: functional; settings: read-out: GI
# [12] = system: Mycobacterium tuberculosis; assay: Antibacterial activity against Mycobacterium tuberculosis H37Rv under anaerobic condition assessed as growth inhibition at 2 ug/ml by BACTEC method; format: functional; settings: read-out: GI
# [13] = system: Mycobacterium tuberculosis; assay: Antibacterial activity against Mycobacterium tuberculosis H37Rv under anaerobic condition assessed as growth inhibition at 100 ug/ml by BACTEC method; format: functional; settings: read-out: GI
# [14] = system: Mycobacterium tuberculosis; assay: Antibacterial activity against Mycobacterium tuberculosis H37Rv under anaerobic condition assessed as growth inhibition at 1 ug/ml by BACTEC method; format: functional; settings: read-out: GI
# [15] = system: Mycobacterium tuberculosis; assay: Antibacterial activity against Mycobacterium tuberculosis H37Rv assessed as growth inhibition at 1 ug/ml by BACTEC method; format: functional; settings: read-out: GI
# [16] = system: Mycobacterium tuberculosis; assay: Antibacterial activity against Mycobacterium tuberculosis H37Rv under anaerobic condition assessed as growth inhibition at 0.1 ug/ml by BACTEC method; format: functional; settings: read-out: GI
# [17] = system: Mycobacterium tuberculosis; assay: Antibacterial activity against Mycobacterium tuberculosis H37Rv assessed as growth inhibition at 20 ug/ml by BACTEC method; format: functional; settings: read-out: GI
# [18] = Mycobacterium tuberculosis, H37Rv, read-out: MIC99
structure (smiles),measurement,setting,value
CCCCCCCCCCC#Cc1cn(C2C=CC(O)C2)c(=O)[nH]c1=O (racemic),CC50 at 72 h,[1],> 125 µg/mL
same,growth inhibition (GI),[2],99%
same,MIC99,[3],20 µg/mL
CCCCCCCCC#Cc1cn(C2C=CC(O)C2)c(=O)[nH]c1=O (racemic),growth inhibition (GI),[4],inactive
same,CC50 at 72 h,[1],> 125 µg/mL
same,MIC99,[3],40 µg/mL
same,inhibition of growth at 40 µg/mL,[5],100%
"CCCCCCCCCCCCC#Cc1cn(C2C=CC(O)C2)c(=O)[nH]c1=O (single isomer, unassigned; (-))",CC50 at 72 h,[1],> 100 µg/mL
same,MIC99,[6]; [18],5 µg/mL
same,growth inhibition (GI),[7],100%
same,growth inhibition (GI),[8],99%
CC[C@@H](CO)NCCN[C@@H](CC)CO [ETHAMBUTOL],MIC99,[6]; [18],5 µg/mL
same,inhibition of growth at 5 µg/mL,"[8]; Mycobacterium tuberculosis, H37Rv, read-out: GI",100%
CCCCCCCCCCCCC#Cc1cn(C2C=CC(O)C2)c(=O)[nH]c1=O (racemic),inhibition of growth at 20 µg/mL,[9],100%
same,CC50,Vero,125 µg/mL
same,growth inhibition (GI),[2],100%
same,inhibition of growth at 10 µg/mL,[10],99%
same,MIC99,[3],10 µg/mL
same,inhibition of growth at 10 µg/mL,[11],99%
CC1COc2c(N3CCN(C)CC3)c(F)cc3c(=O)c(C(=O)O)cn1c23 (stereo not given) [OFLOXACIN],inhibition of growth at 2 µg/mL,[12],100%
same,MIC99,[6]; [18],2 µg/mL
O=c1ccn(C2C=CC(O)C2)c(=O)[nH]1 (racemic),CC50 at 72 h,[1],> 200 µg/mL
same,MIC99,[3],> 40 µg/mL
same,inhibition of growth at 40 µg/mL,[5],75%
NC(=O)c1cnccn1 [PYRAZINAMIDE],inhibition of growth at 100 µg/mL,[13],100%
same,MIC99,[6]; [18],100 µg/mL
CO[C@H]1/C=C/O[C@@]2(C)Oc3c(C)c(O)c4c(O)c(c(/C=N/N5CCN(C)CC5)c(O)c4c3C2=O)NC(=O)/C(C)=C\C=C\[C@H](C)[C@H](O)[C@@H](C)[C@@H](O)[C@@H](C)[C@H](OC(C)=O)[C@@H]1C [RIFAMPIN],inhibition of growth at 1 µg/mL,[14],100%
same,CC50 at 72 h,[1],> 500 µg/mL
same,inhibition of growth at 1 µg/mL,[15],100%
same,MIC99,[6]; [18],1 µg/mL
same,MIC99,[3],1 µg/mL
CCCCCCCCCCCCC#Cc1cn(C2C=CC(O)C2)c(=O)[nH]c1=O (stereo in doubt; (+)6),MIC99,[6],10 µg/mL
same,growth inhibition (GI),[8],25%
NNC(=O)c1ccncc1 [ISONIAZID],inhibition of growth at 0.1 µg/mL,[16],100%
same,MIC99,[6]; [18],0.1 µg/mL
O=c1[nH]c(=O)n(C2C=CC(O)C2)cc1I (racemic),inhibition of growth at 20 µg/mL,[17],99%
same,CC50 at 72 h,[1],> 200 µg/mL
same,MIC99,[3],20 µg/mL
same,inhibition of growth at 40 µg/mL,[5],100%
CN[C@@H]1[C@H](O[C@H]2[C@H](O[C@H]3[C@H](O)[C@@H](O)[C@H](N=C(N)N)[C@@H](O)[C@@H]3N=C(N)N)O[C@@H](C)[C@]2(O)C=O)O[C@@H](CO)[C@H](O)[C@H]1O [STREPTOMYCIN],inhibition of growth at 0.1 µg/mL,[16],100%
same,MIC99,[6]; [18],0.1 µg/mL
Cc1cc(=O)[nH]c(=O)n1C1C=CC(O)C1 (racemic),growth inhibition (GI),[4],inactive
same,CC50 at 72 h,[1],> 200 µg/mL
same,MIC99,[3],40 µg/mL
same,inhibition of growth at 40 µg/mL,[5],100%
